{"source": "patent US20230097253A1", "about": "“NOVEL QUINAZOLINE COMPOUND AS THERAPEUTIC AGENT FOR METABOLIC DISORDERS” (BIOWAY., INC, priority 2020, published 2023)", "key": {"[1]": {"tested_on": "Huh7 cells induced with inflammatory response", "assay": "Gene expression in liver cells induced with inflammatory response (qRT-PCR)", "type": "cell-based", "conditions": "Huh7 cells pretreated with IL-1β; 0.5, 2.5, 10 μM; FIG. 11, FIG. 12", "protocol": "After culturing the Huh-7 cells to grow to a confluency of 80-90% in a 6 well plate, except for the control, the cells were pretreated with IL-1β and then treated with BW-3290, which is the compound of the present invention, diluted in the culture medium to concentrations of 0.5 μM, 2.5 μM, and 10 μM, so as to induce an inflammatory response.\nAdditionally, the total RNA was extracted using the RNeasy RNA isolation kit (Qiagen, Hilden, Germany).\nAdditionally, 10 μL of […] per mL of a cell lysis solution was additionally prepared.\nAdditionally, the cells were washed twice with cold PBS and 350 μL of RNA lysis buffer was added thereto.\nAdditionally, 70% EtOH was added to the lysate in an equal volume, mixed by pipetting, transferred to a spin column, and centrifuged at 8,000×g for 15 seconds.\nAdditionally, the flow-through solution was removed and 700 μL of a wash solution was added to the spin column, centrifuged at 8,000×g, and the flow-through solution was removed.\nAdditionally, 500 μL of the wash buffer containing EtOH was added to the spin column and centrifuged at 8,000×g for 2 minutes (repeated 2 times)\nAdditionally, the flow-through solution was discarded and centrifuged once more to completely dry the spin column membrane.\nAdditionally, the spin column was placed into a new Eppendorf tube and 50 μL of RNase-free water was added directly to the spin column membrane and centrifuged at 8,000×g for 1 minute to dissolve and isolate the RNA.\nAdditionally, RNA concentration was measured at OD 260 nm using the Nanophotometer N60 (Implen, Munich, Germany)\nAdditionally, 1 μg of total RNA was reverse transcribed in the first strand synthesis buffer containing oligo (dT) primer (6 μg/mL), random primer (3 μg/mL), 50 U of reverse transcriptase, 4 mM dNTP, […], 5 mM magnesium chloride (MgCl2), and 40 U of RNase inhibitor.\nAdditionally, cDNA was synthesized using a polymerase chain reaction (PCR) device which was set to undergo denaturation at 95° C. for 5 minutes, cDNA synthesis at 42° C. for 50 minutes, and denaturation at 95° C. for 5 minutes. […]"}, "[2]": {"tested_on": "Huh7 cells induced with inflammatory response", "assay": "Protein expression levels in liver cells induced with inflammatory response (western blot)", "type": "cell-based", "conditions": "Huh7 cells pretreated with 10 ng/ml IL-1β; 0.5, 2.5, 10 μM, 24 hours; FIG. 11", "protocol": "To induce steatosis in Huh-7 cells in each well except for control cells, the Huh-7 cells were pretreated with 10 ng/ml IL-1p for 2 hr except for the control.\nThe cells in each well were treated with the compound of the present invention, BW-3290, 0.5 μM, 2.5 μM, and 10 μM and then cultured for 24 hours. All media were aspirated and the cells were gently washed 3 times with cold PBS.\nA cold lysis buffer containing 150 mM sodium chloride (NaCl), 5 mM ethylenediaminetetraacetic acid (EDTA), pH 8.0, […] 4-(2-hydroxyethyl)-1-piperazineethanesulfonic acid (HEPES), 1% nonylphenoxypolyethoxylethanol (NP-40), 2 μg/mL aprotinin, 1 μM pepstatin A, 10 μM leupeptin, 1 mM sodium fluoride (NaF), 0.2 mM sodium orthovanadate ([…]), and 1 μM phenylmethylsulfonyl fluoride (PMSF) was added thereto.\nA whole cell lysate was collected and gently pipetted at least 10 times to ensure complete lysis. The sample was incubated on ice for 20 minutes and centrifuged 4° C. at 13,000 rpm, for 20 minutes. The supernatant was collected, 5× sodium dodecyl sulfate (SDS) sample buffer containing 50 mM Tris-CI (pH 6.8), 2% SDS, 0.1% bromopheol blue, and 10% glycerol was added to the sample, and boiled at 95° C. for 5 minutes. […]\nImages were acquired using an ImageQuant LAS 3000 (Fujifilm, Tokyo, Japan). Data were analyzed."}, "DIAMOND™ mouse model": {"tested_on": "DIAMOND™ mouse model", "assay": "Insulin resistance test", "type": "in vivo", "conditions": "insulin 0.75 UU/kg intraperitoneally after 6 hours fasting; at 0 and 90 minutes, statistical significance vs control group (VC); FIG. 20", "protocol": "The DIAMOND™ mouse model, an animal model prepared using a Western diet and sugar water, was used. The DIAMOND™ mice were induced with WDSW for 14 weeks, and 12 mice were used for the control group and 12 mice for the BW-3290 treatment group, and BW-3290 was orally administered at 16 mg/kg once daily for 8 weeks. An autopsy was performed at week 22, and blood collection and tissue storage were performed for the individuals in each group.\nThe insulin resistance test was performed one week before autopsy, and the subject was fasted for 6 hours.\nInsulin was injected intraperitoneally at a concentration of 0.75 UU/kg, and the blood was collected 15 minutes, 30 minutes, 45 minutes, and 90 minutes after the injection, and the blood glucose levels were measured using the OneTouch Plus Ultra Glucometer and glucose scores were evaluated therefrom."}}}
{"smiles": "CC(C)C(Nc1ncnc2nc[nH]c12)c1nc2cccc(Cl)c2c(=O)n1-c1ccccc1", "note": "(stereo not drawn) [BW-3290, 2-(1-((7H-purin-6-yl)amino)-2-methylpropyl)-5-chloro-3-phenylquinazolin-4(3H)-one]", "values": [{"measurement": "gene expression level of IL-6", "setting": "[1]", "value": "decreased in a concentration-dependent manner"}, {"measurement": "gene expression level of IL-8", "setting": "[1]", "value": "decreased in a concentration-dependent manner"}, {"measurement": "gene expression level of TNF-α", "setting": "[1]", "value": "decreased in a concentration-dependent manner"}, {"measurement": "protein expression level of p-IKKα", "setting": "[2]", "value": "decreased in a concentration-dependent manner"}, {"measurement": "protein expression level of p-NFκ", "setting": "[2]", "value": "decreased in a concentration-dependent manner"}, {"measurement": "glucose score", "setting": "DIAMOND™ mouse model", "value": "decreased"}]}
